Results reported in PubChem BioAssay AID2060602 (Molecular Pharmacology Branch, DTP, NCI, 2025).
Several values for one entry are separate records, joined by “and”; a condition that tells them apart may be missing. Identical values can stand only once.

System: 648629-189-R-J1-PDC complex spheroids viability
Assay: Anticancer human tumor 648629-189-R-J1-PDC patient-derived bladder carcinoma cell line growth inhibition [CLK]
Details: for viability, T/C: stronger effect = lower value
From the text: A high-throughput screen of multi-cell type tumor spheroids was designed to identify active combinations of […] and targeted small molecules. Complex spheroids include a stromal component modeled by human endothelial cells (HUVEC) and fibroblasts modeled by human mesenchymal stem cells (MSCs). The concentration ranges selected for each drug and investigational agent were based upon clinically achievable concentrations if the clinical Cmax of the agent was known.
Compounds. The drugs and investigational agents: cirtuvivint (SM08502; NSC835563), CC-671 (NSC850746), vemurafenib (NSC761431), tapotoclax (NSC804041), sotorasib (NSC818433), adagrasib (NSC831453), MRTX-1133 (NSC836407), BAY2416964 (NSC825713), copanlisib (NSC816437), inavolisib (NSC800729), abemaciclib (NSC768073), osimertinib (NSC779217), entinostat (NSC756642), eltanexor (KPT-8602, NSC794443), venetoclax (NSC766270), ceralasertib (NSC777638), bortezomib (NSC756655), olaparib (NSC753686), talazoparib (NSC767125), alisertib (NSC759677), peposertib (NSC802822), gemcitabine (NSC613327), 5-fluorouracil (NSC19893), SN-38 (NSC673596), oxaliplatin (NSC266046), paclitaxel (NSC125973), and doxorubicin (NSC123127), were obtained from the National Cancer Institute (NCI) Developmental Therapeutics Program Chemical Repository. The FDA-approved anticancer drug set is available from the Developmental Therapeutics Program at https://dtp.cancer.gov/organization/dscb/obtaining/available plates.htm. […] The stock solutions were prepared in dimethyl sulfoxide (DMSO, Sigma-Aldrich, St. Louis, MO, cat. D2650), except for the platinum complexes which were prepared in saline (Quality Biological, Gaithersburg, MD, cat. 114-055-101), at 800-fold the tested concentration and stored at -70 degrees C prior to their use. All drugs and investigational agents were tested over a range starting from a high concentration at or near the clinical Cmax and decreasing in half-log increments. If the clinical Cmax for an agent had not been determined, the highest concentration tested was 10 microM.
Cell Culture. All cells were maintained in an incubator at 37 degrees C and 5% CO2 with 95% humidity. The PDC lines were cultured according to standard operating procedures established by the NCI PDMR. Briefly, all PDCs were thawed and cultured in Matrigel-coated flasks prepared with a working solution of 1X Ham's F-12 nutrient mix, without supplementation (Invitrogen, Waltham, MA, cat. 11765054), 100 U/mL penicillin-streptomycin (Invitrogen, cat. 15140122), and 2.5% Matrigel (Corning Inc., Corning, NY, cat. 354248) for the first three passages. The 947758-054-R-J2-PDC line was cultured in 6B/Colon 1A media, which includes advanced DMEM/F-12 (Thermo Fisher Scientific, cat. 12634028), 10 mM HEPES (Thermo Fisher Scientific, cat. 15630080), 1X GlutaMAX supplement (Thermo Fisher Scientific, cat. 35050061), 0.1 mg/mL primocin (InvivoGen, cat. ant-pm-2), 10% defined fetal bovine serum, heat inactivated (HyClone Laboratories Inc., cat. SH30070.03HI), 1.25 mM N-Acetyl-L-cysteine (Sigma-Aldrich, cat. A9165), 10 mM nicotinamide (Sigma-Aldrich, cat. N0636), 1X B-27 supplement (Thermo Fisher Scientific, cat. 17504044), 1X N-2 supplement (Thermo Fisher Scientific, cat. 17502048), and 10 microM Y-27632 dihydrochloride (Tocris Bioscience, cat. 1254). The 876862-298-R-J1-PDC was cultured in 6E media, which includes all 6B/Colon 1A media components plus 50% L-WRN conditioned media (ATCC, cat. CRL-3276), 50 ng/mL recombinant human EGF recombinant protein (hEGF; Thermo Fisher Scientific, cat. PHG0311), 10 ng/mL recombinant human fibroblast growth factor 10 (hGFG-10; PeproTech, cat. 100-26), 1 ng/mL recombinant human fibroblast growth factor 2 (hFGF-2; PeproTech, cat. 100-18B), and 1 µM prostaglandin E2 (PGE2; Tocris, cat. 2296). The 227483-062-R1-J1-PDC line was cultured in Panc media, containing all 6E components except hFGF-2, with the addition of 500 nM SB-431542 (Selleckchem, cat. S1067) and 10 nM gastrin (Tocris, cat. 3006). […]

[1] = curve of first compound, second compound 0.0316 µM
[2] = curve of first compound, second compound 0.1 µM
[3] = curve of first compound, second compound 0.316 µM
[4] = curve of first compound, second compound 1 µM
[5] = curve of first compound, second compound 3.16 µM
[6] = curve of first compound, second compound 10 µM
[7] = second compound 0.0316 µM, first compound 0.0316 µM
[8] = second compound 0.0316 µM, first compound 0.1 µM
[9] = second compound 0.0316 µM, first compound 0.316 µM
[10] = second compound 0.0316 µM, first compound 1 µM
[11] = second compound 0.0316 µM, first compound 3.16 µM
[12] = second compound 0.0316 µM, first compound 10 µM
[13] = second compound 0.1 µM, first compound 0.0316 µM
[14] = second compound 0.1 µM, first compound 0.1 µM
[15] = second compound 0.1 µM, first compound 0.316 µM
[16] = second compound 0.1 µM, first compound 1 µM
[17] = second compound 0.1 µM, first compound 3.16 µM
[18] = second compound 0.1 µM, first compound 10 µM
[19] = second compound 0.316 µM, first compound 0.0316 µM
[20] = second compound 0.316 µM, first compound 0.1 µM
[21] = second compound 0.316 µM, first compound 0.316 µM
[22] = second compound 0.316 µM, first compound 1 µM
[23] = second compound 0.316 µM, first compound 3.16 µM
[24] = second compound 0.316 µM, first compound 10 µM
[25] = second compound 1 µM, first compound 0.0316 µM
[26] = second compound 1 µM, first compound 0.1 µM
[27] = second compound 1 µM, first compound 0.316 µM
[28] = second compound 1 µM, first compound 1 µM
[29] = second compound 1 µM, first compound 3.16 µM
[30] = second compound 1 µM, first compound 10 µM
[31] = second compound 3.16 µM, first compound 0.0316 µM
[32] = second compound 3.16 µM, first compound 0.1 µM
[33] = second compound 3.16 µM, first compound 0.316 µM
[34] = second compound 3.16 µM, first compound 1 µM
[35] = second compound 3.16 µM, first compound 3.16 µM
[36] = second compound 3.16 µM, first compound 10 µM
[37] = second compound 10 µM, first compound 0.0316 µM
[38] = second compound 10 µM, first compound 0.1 µM
[39] = second compound 10 µM, first compound 0.316 µM
[40] = second compound 10 µM, first compound 1 µM
[41] = second compound 10 µM, first compound 3.16 µM
[42] = second compound 10 µM, first compound 10 µM
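Wherever viability, T/C is given: drug exposure lasted seven days before viability readout; 100% = DMSO vehicle control wells.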

CC(Nc1ccc2c(c1)OCCn1cc(N3C(=O)OCC3C(F)F)nc1-2)C(N)=O (stereo unspecified) + CN1CCN(c2cc(C(=O)Nc3cc4cc(-c5cnn(C)c5)ccc4cn3)ccn2)CC1
IC50 [1]: 8560 nM | IC50 [2]: 8740 nM | IC50 [3]: < 31.6 nM | IC50 [4]: < 31.6 nM | IC50 [5]: < 31.6 nM | IC50 [6]: < 31.6 nM | viability, T/C [7]: 114% | viability, T/C [8]: 111% | viability, T/C [9]: 97.6% | viability, T/C [10]: 84.2% | viability, T/C [11]: 77.2% | viability, T/C [12]: 44.8% | viability, T/C [13]: 105% | viability, T/C [14]: 100% | viability, T/C [15]: 90.2% | viability, T/C [16]: 82.8% | viability, T/C [17]: 68.8% | viability, T/C [18]: 46.8% | viability, T/C [19]: 44.5% | viability, T/C [20]: 44.2% | viability, T/C [21]: 42.5% | viability, T/C [22]: 38.4% | viability, T/C [23]: 30.9% | viability, T/C [24]: 28.1% | viability, T/C [25]: 0.75% | viability, T/C [26]: 0.85% | viability, T/C [27]: 0.93% | viability, T/C [28]: 1.18% | viability, T/C [29]: 0.5% | viability, T/C [30]: 0.59% | viability, T/C [31]: 0.08% | viability, T/C [32]: 0.14% | viability, T/C [33]: 0.16% | viability, T/C [34]: 0.13% | viability, T/C [35]: 1.1% | viability, T/C [36]: 0.14% | viability, T/C [37]: 0.1% | viability, T/C [38]: 0.13% | viability, T/C [39]: 0.17% | viability, T/C [40]: 0.22% | viability, T/C [41]: 0.22% | viability, T/C [42]: 0.2%

C=C(F)C(=O)N1CCN(c2nc(OCC3CCCN3C)nc3c2CCN(c2cccc4cccc(Cl)c24)C3)CC1CC#N (stereo unspecified)
viability, T/C (compound 0.0316 µM): 103% and 97.9% | viability, T/C (compound 0.1 µM): 97.9% and 98.3% | viability, T/C (compound 0.316 µM): 101% and 99% | viability, T/C (compound 1 µM): 87.8% and 95.9% | viability, T/C (compound 3.16 µM): 98% and 93.7% | viability, T/C (compound 10 µM): 0.23% and 0.2% | IC50 (curve of compound): 5550 nM and 5420 nM

COc1cccc2c1C(=O)c1c(O)c3c(c(O)c1C2=O)CC(O)(C(=O)CO)CC3OC1CC(N)C(O)C(C)O1 (stereo unspecified) + CN1CCN(c2cc(C(=O)Nc3cc4cc(-c5cnn(C)c5)ccc4cn3)ccn2)CC1
IC50 [1]: < 31.6 nM | IC50 [2]: < 31.6 nM | IC50 [3]: < 31.6 nM | IC50 [4]: < 31.6 nM | IC50 [5]: < 31.6 nM | IC50 [6]: < 31.6 nM | viability, T/C [7]: 22.1% | viability, T/C [8]: 17.5% | viability, T/C [9]: 7.83% | viability, T/C [10]: 0.53% | viability, T/C [11]: 0.16% | viability, T/C [12]: 1.13% | viability, T/C [13]: 16.5% | viability, T/C [14]: 14.2% | viability, T/C [15]: 5% | viability, T/C [16]: 0.45% | viability, T/C [17]: 0.14% | viability, T/C [18]: 0.19% | viability, T/C [19]: 16.5% | viability, T/C [20]: 13.5% | viability, T/C [21]: 4.02% | viability, T/C [22]: 0.15% | viability, T/C [23]: 0.1% | viability, T/C [24]: 0.12% | viability, T/C [25]: 0.16% | viability, T/C [26]: 0.14% | viability, T/C [27]: 0.14% | viability, T/C [28]: 0.08% | viability, T/C [29]: 0.11% | viability, T/C [30]: 0.08% | viability, T/C [31]: 0.06% | viability, T/C [32]: 0.1% | viability, T/C [33]: 0.09% | viability, T/C [34]: 0.07% | viability, T/C [35]: 0.09% | viability, T/C [36]: 0.08% | viability, T/C [37]: 0.05% | viability, T/C [38]: 0.61% | viability, T/C [39]: 0.11% | viability, T/C [40]: 0.12% | viability, T/C [41]: 0.11% | viability, T/C [42]: 0.1%
